The target in one assay is VEGFR2 (Homo sapiens, UniProt P35968). In words: Kinase inhibition assay (LANCE or HTRF). As to conditions: ATP at Km. In kind it is biochemical.
In the next assay the target is ITK (Homo sapiens, UniProt Q08881). Briefly: Kinase inhibition assay (LANCE or HTRF). As to conditions: ATP at Km. It is filed as biochemical.
For another assay, the target named is MNK2 (Homo sapiens, UniProt Q9HBH9). In words: Kinase inhibition assay (LANCE or HTRF). In kind it is biochemical. As to conditions: ATP at Km.
MNK2, sequence (Q9HBH9 whole entry): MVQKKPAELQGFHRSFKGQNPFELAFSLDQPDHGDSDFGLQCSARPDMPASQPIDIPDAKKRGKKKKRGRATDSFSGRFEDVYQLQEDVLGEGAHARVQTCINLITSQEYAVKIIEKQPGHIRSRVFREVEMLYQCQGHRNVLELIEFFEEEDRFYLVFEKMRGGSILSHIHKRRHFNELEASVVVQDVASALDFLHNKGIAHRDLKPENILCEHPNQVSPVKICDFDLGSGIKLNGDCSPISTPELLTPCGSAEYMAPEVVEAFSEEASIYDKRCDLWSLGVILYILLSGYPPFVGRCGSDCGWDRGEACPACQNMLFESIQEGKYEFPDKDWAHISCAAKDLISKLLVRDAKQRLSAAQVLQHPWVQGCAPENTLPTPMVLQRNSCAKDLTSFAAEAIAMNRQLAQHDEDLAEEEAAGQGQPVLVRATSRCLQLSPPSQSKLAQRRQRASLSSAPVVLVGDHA
A further assay deals with MLK. In words: Kinase inhibition assay (LANCE or HTRF). It is filed as biochemical, human. As to conditions: ATP at Km.
In another assay the test system is SNU-5. Briefly: Cell proliferation assay (CellTiter-Glo, 72 hours). In kind it is cell-based. As to conditions: Homo sapiens, read-out: IC50 anti-proliferative.
The test system of another assay is NCI-N87. Briefly: Cell proliferation assay (CellTiter-Glo, 72 hours). In kind it is cell-based. As to conditions: Homo sapiens, read-out: IC50 anti-proliferative.
The next assay deals with KATOIII. Briefly: Cell proliferation assay (CellTiter-Glo, 72 hours). It is filed as cell-based. As to conditions: Homo sapiens, KATO III, read-out: IC50 anti-proliferative.
Another assay deals with NUGC-4. In words: Cell proliferation assay (CellTiter-Glo, 72 hours). In kind it is cell-based. As to conditions: Homo sapiens, read-out: IC50 anti-proliferative.
Assay [1] has as its system gastric tumor cell lines with high MET mRNA levels. Briefly: cells. As to conditions: Homo sapiens, read-out: average IC50 value. As for the experimental part: (§1) These cell lines were obtained from American Type Culture Collection (ATCC), Japanese Collection of Research Bioresources (JCRB), Shanghai Institutes of Biological Sciences, CAS (SIBS), Korean Cell Line Bank (KCLB) or National Institutes of Health (NIH). […] Cell viability was measured after 72 hours using a CellTiter-Glo Luminescent Cell Viability Assay Kit (Promega, WI, USA) according to the manufacturer’s instructions.
(§2) The MET mRNA expression level in each human gastric cell lines was evaluated with real-time PCR. Glyceraldehyde-3-phosphate dehydrogenase (GAPDH) was considered as the internal control. The amplification was performed in a 20 μl mixture containing 10 μl of TaqMan Universal PCR Master Mix (Invitrogen, CA, USA) with UNG, 1 μl of the MET (Hs01565584_m1) or GAPDH (Hs02786624_g1) TaqMan Gene Expression Assay (Thermo, CA, USA), and 5 μl of cDNA solution. Each sample was analyzed in triplicate on an Agilent Technologies Stratagenes Mx3005P (CA, USA). Relative MET mRNA expression is presented as the fold-change, which was calculated using the 2^ (-ΔΔCt) method.

Assay [2] concerns gastric tumor cell lines with low MET mRNA levels. In words: cells. As to conditions: Homo sapiens, read-out: average IC50 value. As for the experimental part:
as §1, §2

Another assay deals with AKT phosphorylation. In words: Western blot of signaling molecules in SNU-5 cells. In kind it is cell-based, human. The text has this: (§3) The SNU-5 cell line was selected for western blotting analysis of signaling molecules. […] Immunoreactive proteins (p-AXL, t-ERK and p-ERK) were visualized using the ECL system (Pierce Chemical, TX, USA). Other proteins were detected by Odyssey (LI-COR, NE, USA) at a wavelength of 700 nm or 800 nm. […] Tumor lysates were subjected to western blotting. The following antibodies were purchased from Cell Signaling Technology (Cell Signaling Technology Cat#3148, RRID : AB_1031042): anti-MET (Cell Signaling Technology Cat# 3148, RRID : AB_1031042), anti-p-MET Y1234/1235 (Antibodies-Online Cat# ABIN461461, RRID : AB_10786128), anti-AXL (Cell Signaling Technology Cat# 4566, RRID : AB_2062563), anti-p-AXL Y702 (5724S), anti-ERK (9107S), anti-p-ERK Thr202/Tyr204 (4370S), anti-p-AKT Ser473 (4060S), and anti-AKT (Cell Signaling Technology Cat# 2920, RRID : AB_1147620).

The next assay relates to AXL phosphorylation. Briefly: Western blot of signaling molecules in SNU-5 cells. It is filed as cell-based, human.
From the text: as §3

The next assay concerns ERK phosphorylation. Briefly: Western blot of signaling molecules in SNU-5 cells. It is filed as cell-based, human.
From the text: as §3

For the next assay, the system named is MET phosphorylation. In words: Western blot of signaling molecules in SNU-5 cells. In kind it is cell-based, human.
From the text: as §3

Molecules are shown by their SMILES. pIC50: −log10 of the molar value.

ITK, sequence (Q08881 whole entry): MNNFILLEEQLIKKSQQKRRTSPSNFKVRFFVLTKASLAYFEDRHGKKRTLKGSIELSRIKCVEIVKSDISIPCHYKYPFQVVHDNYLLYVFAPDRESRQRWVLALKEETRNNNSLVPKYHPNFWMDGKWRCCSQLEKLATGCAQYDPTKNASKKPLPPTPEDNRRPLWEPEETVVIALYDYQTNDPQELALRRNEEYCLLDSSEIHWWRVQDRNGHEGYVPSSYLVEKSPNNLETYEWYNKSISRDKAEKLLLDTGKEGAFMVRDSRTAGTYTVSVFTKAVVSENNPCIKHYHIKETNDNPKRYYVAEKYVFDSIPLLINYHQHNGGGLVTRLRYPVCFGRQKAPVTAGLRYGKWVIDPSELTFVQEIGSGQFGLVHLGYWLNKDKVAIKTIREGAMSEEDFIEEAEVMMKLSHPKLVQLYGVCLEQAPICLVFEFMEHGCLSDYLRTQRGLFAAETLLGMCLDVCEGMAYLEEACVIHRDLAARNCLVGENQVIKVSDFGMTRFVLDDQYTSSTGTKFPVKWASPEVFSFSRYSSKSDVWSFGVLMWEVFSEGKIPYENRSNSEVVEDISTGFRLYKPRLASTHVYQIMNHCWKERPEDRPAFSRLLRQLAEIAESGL
VEGFR2, sequence (P35968 20-1356): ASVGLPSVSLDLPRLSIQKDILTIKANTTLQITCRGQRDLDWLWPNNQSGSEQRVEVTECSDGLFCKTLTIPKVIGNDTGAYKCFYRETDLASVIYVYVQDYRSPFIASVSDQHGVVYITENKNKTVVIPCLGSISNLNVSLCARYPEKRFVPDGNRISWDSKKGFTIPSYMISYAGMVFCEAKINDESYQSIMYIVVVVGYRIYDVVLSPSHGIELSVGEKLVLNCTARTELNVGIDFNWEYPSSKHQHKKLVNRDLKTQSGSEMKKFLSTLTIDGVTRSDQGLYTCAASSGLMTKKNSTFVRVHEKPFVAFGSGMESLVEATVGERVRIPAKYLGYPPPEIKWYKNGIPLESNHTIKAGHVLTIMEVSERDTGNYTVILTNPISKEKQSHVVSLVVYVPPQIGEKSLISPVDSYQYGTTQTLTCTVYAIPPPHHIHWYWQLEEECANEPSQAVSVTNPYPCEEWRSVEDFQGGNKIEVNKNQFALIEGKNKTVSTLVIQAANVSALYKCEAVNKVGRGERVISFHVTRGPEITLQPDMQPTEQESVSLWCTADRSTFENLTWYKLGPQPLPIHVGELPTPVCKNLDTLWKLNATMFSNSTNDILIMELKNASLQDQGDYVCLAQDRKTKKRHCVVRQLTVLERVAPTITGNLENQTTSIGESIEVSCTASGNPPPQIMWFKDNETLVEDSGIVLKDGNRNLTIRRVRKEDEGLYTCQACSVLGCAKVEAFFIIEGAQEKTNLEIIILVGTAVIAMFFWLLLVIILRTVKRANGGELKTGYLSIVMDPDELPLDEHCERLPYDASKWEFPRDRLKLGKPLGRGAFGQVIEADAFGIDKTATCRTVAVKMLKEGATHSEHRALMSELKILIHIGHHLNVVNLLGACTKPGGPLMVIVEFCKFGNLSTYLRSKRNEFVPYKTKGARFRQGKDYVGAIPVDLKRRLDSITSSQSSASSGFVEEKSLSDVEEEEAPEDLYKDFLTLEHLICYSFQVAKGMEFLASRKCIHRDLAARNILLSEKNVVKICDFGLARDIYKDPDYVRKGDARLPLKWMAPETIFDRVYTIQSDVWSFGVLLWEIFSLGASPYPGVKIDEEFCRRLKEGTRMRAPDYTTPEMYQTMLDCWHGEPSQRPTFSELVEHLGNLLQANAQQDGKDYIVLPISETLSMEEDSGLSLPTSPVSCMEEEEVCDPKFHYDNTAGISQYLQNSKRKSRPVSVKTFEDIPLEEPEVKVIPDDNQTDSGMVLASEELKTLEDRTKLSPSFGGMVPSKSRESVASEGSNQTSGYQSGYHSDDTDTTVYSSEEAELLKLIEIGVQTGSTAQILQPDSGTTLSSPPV
Protocol for ITK: (§4) The IC50 values were determined by measuring phosphorylation of peptide substrate poly at ATP concentrations at the Km.
Protocol for MLK: as §4
Protocol for MNK2: as §4
Protocol for VEGFR2: as §4

Consider `Cc1c(C(=O)Nc2ccc(Oc3ccnc4cc(OCC(C)(C)O)ccc34)c(F)c2)c(=O)n(-c2ccccc2)n1C` [CT053], for which the pIC50 against VEGFR2 was 7.34; against ITK, 6.62; at MNK2, 7.26; against MLK it was 6.80; in the assay with SNU-5, 7.22; in the assay on NCI-N87, < 5.00. For the same compound, the pIC50 with KATOIII was < 5.00; with NUGC-4, < 5.00; in assay [1], 7.02; in assay [2] it was < 5.00. The “suppression of induced AKT activity” value in the assay with AKT phosphorylation was “a much higher concentration of CT053 was required”. Further, in the assay with AXL phosphorylation, the “concentration that completely suppressed AXL phosphorylation” value was 100 nM. The “concentration that completely suppressed phosphorylation of ERK” value with ERK phosphorylation was 1000 nM. The “concentration that completely suppressed phosphorylation of MET” value with MET phosphorylation was 1000 nM.

(Values after paper PMC9632963, “Preclinical characterization and phase I clinical trial of CT053PTSA targets MET, AXL, and VEGFR2 in patients with advanced solid tumors” (Frontiers in Immunology, 2022).)
